By EC50 is commonly meant the concentration needed to bring the measured effect to its halfway point.

The text below walks through data of patent publication US11613538B2, “Method of inhibiting or reducing a viral infection” (PTC Therapeutics, Inc., priority 2009, dated 2023).

Where only a bound is given, the exact number is not on record here.

In this test the test system is hypoxia-induced VEGF production in HeLa cells. Briefly: cells. Format: cell-based, human. Particulars: Homo sapiens, HeLa.

The compound `C[Si](C)(C)CCS(=O)(=O)N1CCC(Oc2ccc(C3c4[nH]c5ccc(Cl)cc5c4CCN3c3ncccn3)cc2)CC1` (stereo not drawn) [Compound 1583] registered an EC50 of less than 8 nM. In the case of `COc1ccc(C2c3[nH]c4ccc(Cl)cc4c3CCN2c2nc(C)cs2)cc1` (stereo not drawn) [Compound 1584] it was less than 8 nM; in that of `CCOC(=O)c1csc(N2CCc3c([nH]c4ccc(Cl)cc34)C2c2ccc(OC)cc2)n1` (stereo not drawn) [Compound 1585], less than 8 nM; in that of `COc1ccc(C2c3[nH]c4ccc(Cl)cc4c3CCN2c2nc(O)cs2)cc1` (stereo not drawn) [Compound 1586], 40 to 200 nM. The same measure for `COc1ccc(C2c3[nH]c4ccc(Cl)cc4c3CCN2c2nc(C(C)(C)C)cs2)cc1` (stereo not drawn) [Compound 1587]: less than 8 nM. For `COc1ccc(C2c3[nH]c4ccc(Cl)cc4c3CCN2c2nc(C)c(C(=O)N(C)C)s2)cc1` (stereo not drawn) [Compound 1588], the EC50 is 40 to 200 nM. In the case of `COc1ccc(C2c3[nH]c4ccc(Cl)cc4c3CCN2c2nc(C(F)(F)F)cs2)cc1` (stereo not drawn) [Compound 1589] it was less than 8 nM.

The compound `COc1ccc(C2c3[nH]c4ccc(Cl)cc4c3CCN2c2nc(-c3ccccn3)cs2)cc1` (stereo not drawn) [Compound 1590] yielded an EC50 of 8 to 40 nM. `COc1ccc(-c2csc(N3CCc4c([nH]c5ccc(Cl)cc45)C3c3ccc(OC)cc3)n2)cc1` (stereo not drawn) [Compound 1591]: the EC50 was less than 8 nM.

Compound `COc1ccc(C2c3[nH]c4ccc(Cl)cc4c3CCN2c2nc(-c3cccnc3)cs2)cc1` (stereo not drawn) [Compound 1592] displayed an EC50 of 40 to 200 nM. `COc1ccc(C2c3[nH]c4ccc(Cl)cc4c3CCN2C(=N)SC2CCCC2=O)cc1` (stereo not drawn) [Compound 1593]: the EC50 lay in the range of 40 to 200 nM. Regarding `COc1ccc(C2c3[nH]c4ccc(Cl)cc4c3CCN2c2nc(-c3ccncc3)cs2)cc1` (stereo not drawn) [Compound 1594], the 50% effective concentration (EC50) was 40 to 200 nM. In the case of `COc1ccc(C2c3[nH]c4ccc(Cl)cc4c3CCN2c2nc(-c3ccsc3)cs2)cc1` (stereo not drawn) [Compound 1595], the EC50 is 8 to 40 nM.

Compound `COc1ccc(C2c3[nH]c4ccc(Cl)cc4c3CCN2c2nc(CC(C)=O)cs2)cc1` (stereo not drawn) [Compound 1596] registered an EC50 of 8 to 40 nM. Regarding `COc1ccc(C2c3[nH]c4ccc(Cl)cc4c3CCN2c2nc(-c3ccc(Cl)cc3)cs2)cc1` (stereo not drawn) [Compound 1597], the EC50 was less than 8 nM. For `COc1ccc(C2c3[nH]c4ccc(Cl)cc4c3CCN2c2nc(-c3ccccc3)cs2)cc1` (stereo not drawn) [Compound 1598], the EC50 is less than 8 nM.

As for `COc1ccc(C2c3[nH]c4ccc(Cl)cc4c3CCN2c2nc(-c3ccccc3)c(C(=O)c3ccc(Cl)cc3)s2)cc1` (stereo not drawn) [Compound 1600], the EC50 is less than 8 nM. The same measure for `COc1ccc(C(=O)c2sc(N3CCc4c([nH]c5ccc(Cl)cc45)C3c3ccc(OC)cc3)nc2-c2ccccc2)cc1` (stereo not drawn) [Compound 1601]: less than 8 nM; for `CC#CCOC(=O)N1CCc2c([nH]c3ccc(Cl)cc23)[C@@H]1c1ccc(OC2CCOCC2)cc1` [Compound 1603]: less than 8 nM. `CC#CCOC(=O)N1CCc2c([nH]c3ccc(Cl)cc23)[C@@H]1c1ccc(OC2CCN(S(=O)(=O)CC[Si](C)(C)C)CC2)cc1` [Compound 1606] had an EC50 of less than 8 nM. The same measure for `C[Si](C)(C)CCS(=O)(=O)N1CCC(Oc2ccc([C@H]3c4[nH]c5ccc(Cl)cc5c4CCN3C(=O)Oc3ccc(F)cc3)cc2)CC1` [Compound 1607]: less than 8 nM; for `C=CCOc1ccc([C@H]2c3[nH]c4ccc(Cl)cc4c3CCN2P(=O)(OCC)OCC)cc1` [Compound 1608]: greater than 1000 nM; for `C=CCOc1ccc([C@H]2c3[nH]c4ccc(Cl)cc4c3CCN2C(=O)OCC2CCCC2)cc1` [Compound 1609]: less than 8 nM. `CCOC(=O)N1CCc2c([nH]c3ccc(Cl)cc23)[C@@H]1c1ccc(OCCCNCC2CCCO2)cc1` (stereo partly drawn) [Compound 1610]: the EC50 lay within 40 to 200 nM. The same measure for `CCOC(=O)N1CCc2c([nH]c3ccc(Cl)cc23)[C@@H]1c1ccc(OCCC(O)CNC(=O)CC)cc1` (stereo partly drawn) [Compound 1615]: 8 to 40 nM. In turn, `CCOC(=O)N1CCc2c([nH]c3ccc(Cl)cc23)[C@@H]1c1ccc(OCCC(O)CNC(=O)C(C)C)cc1` (stereo partly drawn) [Compound 1616] yielded an EC50 of 8 to 40 nM.

On to `CCOC(=O)N1CCc2c([nH]c3ccc(Cl)cc23)[C@@H]1c1ccc(OCCC(O)CNC(=O)c2cccnc2)cc1` (stereo partly drawn) [Compound 1617], for which the EC50 was in the range of 8 to 40 nM. The same measure for `CCOC(=O)N1CCc2c([nH]c3ccc(Cl)cc23)[C@@H]1c1ccc(OCCC(O)CNC(=O)c2ccccn2)cc1` (stereo partly drawn) [Compound 1618]: less than 8 nM.

For the compound `CCOC(=O)N1CCc2c([nH]c3ccc(Cl)cc23)[C@@H]1c1ccc(OCCC(O)CNC(=O)OC)cc1` (stereo partly drawn) [Compound 1619], the EC50 was less than 8 nM. On to `CCCOC(=O)NCC(O)CCOc1ccc([C@H]2c3[nH]c4ccc(Cl)cc4c3CCN2C(=O)OCC)cc1` (stereo partly drawn) [Compound 1620], for which the EC50 was less than 8 nM.

On to `CCOC(=O)N1CCc2c([nH]c3ccc(Cl)cc23)[C@@H]1c1ccc(OCCC(O)CNC(=O)OCCOC)cc1` (stereo partly drawn) [Compound 1621], for which the EC50 was less than 8 nM. In the case of `CCOC(=O)N1CCc2c([nH]c3ccc(Cl)cc23)[C@@H]1c1ccc(OCCC(O)CNS(C)(=O)=O)cc1` (stereo partly drawn) [Compound 1622], the EC50 was less than 8 nM. In the case of `CCOC(=O)N1CCc2c([nH]c3ccc(Cl)cc23)[C@@H]1c1ccc(OCCC(O)CNS(=O)(=O)CC)cc1` (stereo partly drawn) [Compound 1623] it was less than 8 nM.

`CCOC(=O)N1CCc2c([nH]c3ccc(Cl)cc23)[C@@H]1c1ccc(OCCC(O)CNS(=O)(=O)C2CC2)cc1` (stereo partly drawn) [Compound 1624] registered an EC50 of less than 8 nM. In the case of `O=C(OCC1CCCC1)N1CCc2c([nH]c3ccc(Cl)cc23)[C@@H]1c1ccc(OCCCO)cc1` [Compound 1630] it was less than 8 nM.

`O=C(OCC1CCCC1)N1CCc2c([nH]c3ccc(Cl)cc23)[C@@H]1c1ccc(O)cc1` [Compound 1631] displayed an EC50 of 40 to 200 nM. For the compound `OCCCOc1ccc([C@H]2c3[nH]c4ccc(Cl)cc4c3CCN2c2nc(C(F)(F)F)cs2)cc1` [Compound 1632], the EC50 was less than 8 nM.

Turning to `OC[C@@H](O)COc1ccc([C@H]2c3[nH]c4ccc(Cl)cc4c3CCN2c2nc(C(F)(F)F)cs2)cc1` [Compound 1633], the EC50 was less than 8 nM. Turning to `OC[C@H](O)COc1ccc([C@H]2c3[nH]c4ccc(Cl)cc4c3CCN2c2nc(C(F)(F)F)cs2)cc1` [Compound 1634], the EC50 is less than 8 nM. Take `CS(=O)(=O)CCCOc1ccc([C@H]2c3[nH]c4ccc(Cl)cc4c3CCN2C(=O)Oc2ccc(Cl)cc2)cc1` [Compound 1648]: the EC50 is less than 8 nM. In the case of `CCOC(=O)NC[C@@H](O)COc1ccc([C@H]2c3[nH]c4ccc(Cl)cc4c3CCN2C(=O)OCC)cc1` [Compound 1650] it was less than 8 nM. The compound `CCOC(=O)NC[C@H](O)COc1ccc([C@H]2c3[nH]c4ccc(Cl)cc4c3CCN2C(=O)OCC)cc1` [Compound 1651] registered an EC50 of less than 8 nM. On to `C[Si](C)(C)CCS(=O)(=O)N1CCC(Oc2ccc([C@H]3c4[nH]c5ccc(Cl)cc5c4CCN3C(=O)Oc3ccc(Cl)cc3)cc2)CC1` [Compound 1652], for which the EC50 was less than 8 nM.

`CCOC(=O)N1CCc2c([nH]c3ccc(Cl)cc23)[C@@H]1c1ccc(Oc2nc(C)cnc2C)cc1` [Compound 1653] came in with an EC50 of less than 8 nM. `CCOC(=O)N1CCc2c([nH]c3ccc(Cl)cc23)[C@@H]1c1ccc(Oc2nccnc2C)cc1` [Compound 1654] registered an EC50 of less than 8 nM. In turn, `CCOC(=O)N1CCc2c([nH]c3ccc(Cl)cc23)[C@@H]1c1ccc(Oc2cnc(N)cn2)cc1` [Compound 1655] gave an EC50 of 40 to 200 nM. With `CCOC(=O)N1CCc2c([nH]c3ccc(Cl)cc23)[C@@H]1c1ccc(Oc2ncc(CN3CCOCC3)s2)cc1` [Compound 1656], the EC50 was less than 8 nM. The same measure for `CCOC(=O)N1CCc2c([nH]c3ccc(Cl)cc23)[C@@H]1c1ccc(Oc2ncc(CN3CCN(C)CC3)s2)cc1` [Compound 1657]: less than 8 nM. The same measure for `O=C(Oc1ccc(Cl)cc1)N1CCc2c([nH]c3ccc(Cl)cc23)[C@@H]1c1ccc(Oc2ncc(CN3CCOCC3)s2)cc1` [Compound 1660]: less than 8 nM. `CN1CCN(Cc2cnc(Oc3ccc([C@H]4c5[nH]c6ccc(Cl)cc6c5CCN4C(=O)Oc4ccc(Cl)cc4)cc3)s2)CC1` [Compound 1661] gave an EC50 of less than 8 nM. In the case of `COc1ccc([C@H]2c3[nH]c4ccc(Cl)cc4c3CCN2C(=O)OCC2CCCC2)cc1` [Compound 1662] it was 8 to 40 nM; in that of `CCOC(=O)NC[C@H](O)COc1ccc([C@H]2c3[nH]c4ccc(Cl)cc4c3CCN2C(=O)Oc2ccc(F)cc2)cc1` [Compound 1663], less than 8 nM; in that of `CCOC(=O)NC[C@@H](O)COc1ccc([C@H]2c3[nH]c4ccc(Cl)cc4c3CCN2C(=O)Oc2ccc(F)cc2)cc1` [Compound 1664], less than 8 nM. In the case of `CCOC(=O)NCC(O)CCOc1ccc([C@H]2c3[nH]c4ccc(Cl)cc4c3CCN2C(=O)OCC)cc1` (stereo partly drawn) [Compound 1665] it was 8 to 40 nM; in that of `CC1(C)C(=O)NC(=O)N1CCCOc1ccc(C2c3[nH]c4ccc(Cl)cc4c3CCN2C(=O)Oc2ccc(Cl)cc2)cc1` (stereo not drawn) [Compound 1671], less than 8 nM. In the case of `O=C1CN(CCCOc2ccc(C3c4[nH]c5ccc(Cl)cc5c4CCN3C(=O)Oc3ccc(Cl)cc3)cc2)C(=O)N1` (stereo not drawn) [Compound 1672] it was less than 8 nM; in that of `CN1C(=O)CN(CCCOc2ccc(C3c4[nH]c5ccc(Cl)cc5c4CCN3C(=O)Oc3ccc(Cl)cc3)cc2)C1=O` (stereo not drawn) [Compound 1673], less than 8 nM; in that of `CC#CCOC(=O)N1CCc2c([nH]c3ccc(Cl)cc23)[C@@H]1c1ccc(OC2CCN(c3ncccn3)CC2)cc1` [Compound 1678], less than 8 nM. For the compound `CC#CCOC(=O)N1CCc2c([nH]c3ccc(Cl)cc23)[C@@H]1c1ccc(OC2CCN(CCN3CCOCC3)CC2)cc1` [Compound 1679], the EC50 was 8 to 40 nM. The same measure for `CC#CCOC(=O)N1CCc2c([nH]c3ccc(Cl)cc23)[C@@H]1c1ccc(OC2CCN(C(=O)OCCN3CCOCC3)CC2)cc1` [Compound 1680]: less than 8 nM. In turn, `O=C(Oc1ccc(Cl)cc1)N1CCc2c([nH]c3ccc(Cl)cc23)[C@@H]1c1ccc(OC2CCN(CCN3CCOCC3)CC2)cc1` [Compound 1682] had a concentration giving a half-maximal response (EC50) of less than 8 nM. In the case of `CC#CCOC(=O)N1CCc2c([nH]c3ccc(Cl)cc23)[C@@H]1c1ccc(OC2CCNCC2)cc1` [Compound 1683] it was 8 to 40 nM; in that of `CC#CCOC(=O)N1CCc2c([nH]c3ccc(Cl)cc23)[C@@H]1c1ccc(OC2CCN(C)CC2)cc1` [Compound 1684], 8 to 40 nM.
